These results are taken from article PMC8069214, “Synthesis, Biological Evaluation, and Molecular Modeling of Aza-Crown Ethers” (Molecules, 2021).

Assay type in all cases: cell-based
In one experiment the target is T1, FPR2 (Homo sapiens, UniProt P25090).
T1 construct: expressed in transfected cells
T1 sequence (P25090 1-351): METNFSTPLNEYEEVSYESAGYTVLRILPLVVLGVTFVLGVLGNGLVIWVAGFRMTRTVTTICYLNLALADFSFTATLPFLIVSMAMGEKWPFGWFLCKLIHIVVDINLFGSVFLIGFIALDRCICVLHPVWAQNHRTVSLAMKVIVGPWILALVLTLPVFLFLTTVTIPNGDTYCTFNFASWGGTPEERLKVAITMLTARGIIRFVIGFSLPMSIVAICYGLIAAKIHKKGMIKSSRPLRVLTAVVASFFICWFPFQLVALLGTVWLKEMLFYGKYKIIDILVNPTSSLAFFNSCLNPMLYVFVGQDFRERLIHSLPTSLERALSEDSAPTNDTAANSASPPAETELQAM
Description: Inhibition of WKYMVM-induced [Ca2+]i flux in FPR2-HL60 cells. The note with it: 10 min preincubation, 5 nM WKYMVM; N.A. = no activity at < 50 µM; read-out: FPR1/FPR2 Agonist-Induced Δ[Ca^2+]i FPR2-HL60 IC50. How it is done: (§1) Since these compounds elevated neutrophil [Ca^2+]i, and cytosolic Ca^2+ flux is a key component of neutrophil activation, we evaluated if they could alter neutrophil activation by FPR1 or FPR2 agonists. Neutrophils and FPR-transfected HL60 cells were preincubated for 10 min with crown ether compounds, and [Ca^2+]i flux was stimulated with either an FPR1 agonist (fMLF for human neutrophils and FPR1-HL60 cells) or an FPR2 agonist (WKYMVM for FPR2-HL60 cells).
(§2) Human promyelocytic leukemia HL60 cells stably transfected with FPR1 (FPR1-HL60 cells) or FPR2 (FPR2-HL60 cells) (kind gifts from Dr. Marie-Josephe Rabiet, INSERM, Grenoble, France) were cultured in RPMI 1640 medium supplemented with 10% heat-inactivated fetal calf serum, 10 mM HEPES, 100 μg/mL streptomycin, 100 U/mL penicillin, and G418 (1 mg/mL). Although stable cell lines are cultured under G418 selection pressure, G418 may affect some assays, so it was removed in the last round of culture before assays were performed.
(§3) Changes in neutrophil intracellular Ca^2+ concentrations ([Ca^2+]i) were measured with a FlexStation 3 scanning fluorometer (Molecular Devices, Sunnyvale, CA, USA). Briefly, human neutrophils were suspended in HBSS^−, loaded with Fluo-4AM at a final concentration of 1.25 μg/mL, and incubated for 30 min in the dark at 37 °C. After dye loading, the cells were washed with HBSS^−, resuspended in HBSS^+, separated into aliquots, and loaded into the wells of flat-bottom, half-area well black microtiter plates (2 × 10^5 cells/well). To assess the direct effects of test compounds on Ca^2+ flux, the compounds were added to the wells (final concentration of DMSO was 1%), and changes in fluorescence were monitored (λex = 485 nm, λem = 538 nm) every 5 s for 240 s at room temperature after addition of the test compound. To evaluate inhibitory effects of the compounds on FPR1/FPR2-dependent Ca^2+ flux, the compounds were added to the wells (final concentration of DMSO was 1%) with cells (human neutrophils or FPR1/FPR2 HL60 cells). The samples were preincubated for 10 min, followed by addition of 5 nM fMLF (for human neutrophils or FPR1-HL60 cells) or 5 nM WKYMVM (for FPR2-HL60 cells). The maximum change in fluorescence, expressed in arbitrary units over baseline, was used to determine the agonist response. Responses were normalized to the response induced by 5 nM fMLF or 5 nM WKYMVM, which were assigned as 100%. Curve fitting (at least five or six points) and calculation of median effective concentration values (EC50 or IC50) were performed by nonlinear regression analysis of the dose–response curves generated using Prism 7 (GraphPad Software, Inc., San Diego, CA, USA). Efficacy was determined by comparing individual responses activated by the test compounds to that induced by a positive control (5 nM fMLF), which was assigned a value of 100%.

Another experiment addresses T2, FPR1 (Homo sapiens, UniProt P21462).
T2 construct: expressed in transfected cells
T2 sequence (P21462 1-350): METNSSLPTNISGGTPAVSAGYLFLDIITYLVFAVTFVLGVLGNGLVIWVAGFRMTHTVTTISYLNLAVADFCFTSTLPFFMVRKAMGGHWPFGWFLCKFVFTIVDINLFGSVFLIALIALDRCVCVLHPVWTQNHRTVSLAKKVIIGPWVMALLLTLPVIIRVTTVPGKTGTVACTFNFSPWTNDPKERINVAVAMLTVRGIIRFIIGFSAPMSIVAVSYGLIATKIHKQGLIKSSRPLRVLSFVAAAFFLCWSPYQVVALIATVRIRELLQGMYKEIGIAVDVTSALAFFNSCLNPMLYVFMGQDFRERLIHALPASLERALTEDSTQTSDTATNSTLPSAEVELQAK
The experiment is described as follows: Inhibition of fMLF-induced [Ca2+]i flux in FPR1-HL60 cells. The settings on record: 10 min preincubation, 5 nM fMLF; N.A. = no activity at < 50 µM; read-out: FPR1/FPR2 Agonist-Induced Δ[Ca^2+]i FPR1-HL60 IC50. How it is done:
as §1, §2, §3

Experiment [1] relates to human neutrophils. Description: Inhibition of fMLF-induced [Ca2+]i flux in human neutrophils. The note with it: Neutrophil, 10 min preincubation, 5 nM fMLF, N.A. = no activity at < 50 µM, read-out: FPR1/FPR2 Agonist-Induced Δ[Ca^2+]i Neutrophils IC50. How it is done:
as §1, §3

In experiment [2] the test system is human neutrophils. The experiment is described as follows: fMLF-induced neutrophil chemotaxis (ChemoTx chambers). The settings on record: 1 h, 1 nM fMLF, 60 min migration. How it is done:
Human neutrophils were suspended in HBSS^+ containing 2% (v/v) heat-inactivated fetal bovine serum (2 × 10^6 cells/mL), and effects of the compounds on fMLF-induced chemotaxis was analyzed in 96-well ChemoTx chemotaxis chambers (Neuroprobe, Gaithersburg, MD, USA). In brief, neutrophils were preincubated with the indicated concentrations of the test compounds or DMSO for 20 min at room temperature and added to the upper wells of the ChemoTx chemotaxis chambers. The lower wells were loaded with 30 µL of HBSS^+ containing 2% (v/v) fetal bovine serum and the indicated concentrations of test sample plus 1 nM fMLF, DMSO (negative control), or 1 nM fMLF as a positive control. Neutrophils were added to the upper wells and allowed to migrate through the 5.0-µm pore polycarbonate membrane filter for 60 min at 37 °C and 5% CO2. The number of migrated cells was determined by measuring ATP in lysates of transmigrated cells using a luminescence-based assay (CellTiter-Glo; Promega, Madison, WI, USA), and luminescence measurements were converted to absolute cell numbers by comparison of the values with standard curves obtained with known numbers of neutrophils. Curve fitting (at least eight to nine points) and calculation of median effective concentration values (IC50) were performed by nonlinear regression analysis of the dose-response curves generated using Prism 5.

For the compound `O=C(N1CCOCCOCCN(C(=O)C23CC4CC(CC(C4)C2)C3)CCOCC1)C12CC3CC(CC(C3)C1)C2` [Compound 13, N,N’-bis[1-oxo-1-(1-adamantyl)methyl]-4,10-diaza-15-crown-5], the IC50 on FPR2 was determined as 32.6 ± 4.5 µM; on FPR1 it was 16.5 ± 3.2 µM; with human neutrophils [1], 7.4 ± 1.3 µM; in the experiment with human neutrophils [2], 5.8 ± 1.4 µM.
The corresponding values for `O=C(N1CCOCCOCCOCCN(C(=O)C23CC4CC(CC(C4)C2)C3)CCOCC1)C12CC3CC(CC(C3)C1)C2` [Compound 14, N,N’-bis[1-oxo-1-(1-adamantyl)methyl]-4,10-diaza-18-crown-6] are 8.3 ± 2.3 µM, 11.6 ± 2.1 µM, 3.5 ± 0.4 µM and 6.1 ± 2.1 µM.
With `O=C(CC12CC3CC(CC(C3)C1)C2)N1CCOCCOCCN(C(=O)CC23CC4CC(CC(C4)C2)C3)CCOCC1` [Compound 15, N,N’-bis[2-(1-adamantyl)acetyl]-4,10-diaza-15-crown-5], the IC50 at FPR2 is 7.2 ± 1.7 µM; at FPR1, 4.8 ± 0.9 µM; with human neutrophils [1], 4.1 ± 0.6 µM; in the experiment on human neutrophils [2] it was 5.7 ± 0.2 µM.
The like results for `O=C(CC12CC3CC(CC(C3)C1)C2)N1CCOCCOCCN(C(=O)CC23CC4CC(CC(C4)C2)C3)CCOCCOCC1` [Compound 17, N,N’-bis[2-(1-adamantyl)acetyl]-4,13-diaza-18-crown-6] were, in that order, 7.6 ± 1.9 µM, 3.7 ± 0.7 µM, 1.5 ± 0.4 µM and 5.2 ± 1.7 µM.
